Measurements taken from patent US7410955B2, “Therapeutic use of agonist ligands specific to G2A receptor” (Biosynergen, Inc., priority 2002, dated 2008).

Columns and labels:
monocytes (human PBMC) = test: IL-8 release induced by LPS in monocytes (ELISA); format: cell-based; conditions: 15 μM and 30 μM, 1 hour before 1 μg/ml LPS, supernatant after 3 hours
Procedure: Peripheral bloods were collected from a healthy person, put into a heparinized tube and then well mixed with 1× PBS buffer. Then, they were layered in Ficoll-Hypaque solution (density 1.077, Sigma Chemical Co., USA) and then centrifuged at 2500 rpm at 4° C. for 25 min. After the monocyte layer between Ficoll layer and plasma layer had been cautiously recovered, 1×PBS buffer was added thereto and mixed well. It was then centrifuged again at 2500 rpm at 4° C. for 25 min. Such centrifugation procedures were repeated twice until red blood cells were depleted. Thereafter, the pellet was cultured in FBS at 37° C. for 15 min and centrifuged at 2500 rpm for 10 min. Then, 1×PBS buffer was added again to the pellet. The isolated cells were layered in percoll solution (density 1.066) and then centrifuged at 2500 rpm at 4° C. for 30 min. After only monocyte layer had been recovered from the isolated layers, 1×PBS buffer was added thereto. They were centrifuged at 2500 rpm for 15 min. […]
The neutrophils and monocytes isolated in Examples <2-1> and <2-2> above were cultured in a 96-well plate to which RPMI1640 medium containing 10% FBS was added, at a concentration of 1×10^5 cells/well/0.2 ml, respectively. […] Then, the level of IL-8 was measured using ELISA kit (Biosource, USA).

CLP-induced Sepsis model = test: CLP-induced sepsis model; format: in vivo, ICR mice
Procedure: After ICR mice (25-30 g in body weight; MJ Ltd.) had been anesthetized with pentobarbital, right abdominal sites of the mice were dissected in a length of 1 cm to expose their cecum, and sites below the ileocecal valve were ligated. And then, after 4˜6 punctures had been created on the cecum with 21-gauge needle, the abdomen was sutured again to cause peritonitis, thereby inducing Sepsis.
After the peritoneal cavity of mice had been exposed, it was washed with sterilized saline (2 ml). The resultant solution was diluted with HBSS (Sigma Chemical Co., USA) in a ratio of 1/1000, and then 10 μl of each diluted solution was spread on Trypticase Soy agar (BBL, Becton Dickinson Co., USA) plates. After overnight incubation at 37° C., colony forming unit (CFU) was measured.
7 mice were administered with 1-stearoyl LPC (Sigma Chemical Co., USA) dissolved in 1% BSA solution containing no fatty acid in an amount of 10 mg/kg by subcutaneous injection 2 and 14 hours after the CLP surgery, respectively (experimental group). The remaining 7 mice were administered with 1% BSA solution containing no fatty acid of the same amount as above in the same manner (control group). The numbers of intraperitoneal E. coli cells in the ICR mice of experimental and control groups were measured in accordance with Reference Example 3, 24 hours after the CLP surgery.
Each 10 ICR mice were intraperitoneally administered with 1-stearoyl LPC (Sigma Chemical Co., USA) dissolved in 1% BSA solution containing no fatty acid in amounts of 5, 10, and 20 mg/kg, respectively, four times at intervals of 12 hours, 2 hours after the CLP surgery (experimental group-1, -2 and -3). The remaining 10 ICR mice were administered only with 1% BSA solution containing no fatty acid (control group). And then, the survival rates of mice in experimental- and control groups were investigated over the lapse of time.
10 mice for the experimental group were intraperitoneally administered with 1-stearoyl LPC (Sigma Chemical Co., USA) dissolved in 1% BSA solution containing no fatty acid in an amount of 10 mg/kg, four times at intervals of 12 hours, 10 hours after the CLP surgery. The remaining 10 mice for the control group were administered only with 1% BSA solution containing no fatty acid. Thereafter, the survival rates of ICR mice in experimental- and control groups were investigated over the lapse of time.
CLP-induced Sepsis model mice were subcutaneously injected with SPC, instead of 1-stearoyl LPC, in dosages of 3 mg/kg and 30 mg/kg four times at intervals of 12 hours, 2 hours after the CLP surgery, respectively. The survival rates of mice were investigated.

neutrophils = test: Bactericidal activity of neutrophils from bacteria-induced sepsis model mice; format: cell-based; conditions: 30 μM 1-stearoyl LPC for 1 hour after E. coli ingestion, 1 hour killing time; vs PBS control
Procedure: ICR mice (25-30 g in body weight; MJ Ltd.) were intraperitoneally injected with alive 10^8 cells/ml E. coli (DH5a) that were suspended in 0.5 ml of PBS (phosphate-buffered saline) to cause peritonitis, thereby inducing sepsis.
The isolated neutrophils were adhered to the cover slip coated with poly-L-Lysine (0.01%) in a cell incubator maintained at 37° C., at a cell concentration of 10^6 cells/ml for 1 hour. Thereafter, E. coli was added thereto in a concentration of 10^6 cells/ml and cultured for 1 hour. E. coli cells that were not ingested by neutrophils were removed by washing the cover slip with PBS buffer. The cover slip was then treated with […] 1-stearoyl LPC, and further cultured for another 1 hour. In this stage, the cover slip of the control group was treated with PBS buffer, instead of LPC. Thereafter, after the exchange of a new RPMI-1640 medium, they were further cultured for 1 hour to give killing time. Then, the neutrophils were broken using Triton X-100 (0.05%), and accordingly E. coli cells were recovered. The recovered E. coli cells were spread onto a plate and cultured in an incubator maintained at 37° C. The number of E. coli cells that had grown on the medium was counted and subjected to statistical analysis. […]

SMILES: CCCCCCCCCCCCCCCCCC(=O)OCC(O)COP(=O)([O-])OCC[N+](C)(C)C (centres unmarked) [1-stearoyl LPC, 1-stearoyl (18:0) lysophosphatidylcholine]
- level of IL-8 release that had been increased by LPS in monocytes (monocytes (human PBMC)): inhibited by LPC in a concentration-dependent manner
- therapeutic effect (survival rate) when septicemia already developed (CLP-induced Sepsis model; 10 mg/kg intraperitoneal, four times at intervals of 12 hours, starting 10 hours after CLP surgery): excellent therapeutic effect
- number of intraperitoneal E. coli cells (CLP-induced Sepsis model; 10 mg/kg subcutaneous, 2 and 14 hours after CLP surgery, 24 hours after surgery, P<0.01): remarkably decreased
- survival rate (CLP-induced Sepsis model; 5, 10 and 20 mg/kg intraperitoneal, four times at intervals of 12 hours, starting 2 hours after CLP surgery): much higher than that of the mice in control group
- number of alive E. coli recovered from neutrophils (neutrophils): significantly decreased
